# Source: US20200038399A1, “FORMULATIONS, METHODS, KIT, AND DOSAGE FORMS FOR TREATING BACTERIAL INFECTION” (Motif BioSciences Inc., priority 2016, published 2020)
# “And” between values parts separate entries of the source, which are not always exact repeats. Equal entries are not always repeated. Structures can show the parent of a compound that is named as a salt. Where two headings read alike, the source gives them in different places.
# Assays:
# [1] = test system: Staphylococcus aureus AH 1246; assay: mouse subcutaneous abscess model; assay type: in vivo; settings: mice; 40 mg/Kg (alone); PO @ 8, 24, 32, 48, 56 hours post infection
# Protocol: Wild type S. aureus ATCC 25923 and its TK-deficient mutant AH 1246 were supplied by Arpida AG, Reinach, Switzerland.
# S. aureus strains were grown on TSA plates at 37° C. in 5% CO2. The bacteria concentration was adjusted by re-suspending a portion of the overnight growth of the plate in saline and adjusting a 1:10 dilution of the suspension to achieve an OD625 of 0.1. The adjusted suspension was diluted 1:2 in prepared Cytodex beads (1 gram/50 mL PBS) to a final concentration of 5.0×10^5 CFU/mL. Bacterial enumeration was performed to determine actual concentration of the bacterial inoculum.
# CD-1 female mice (weighing 18 to 22 grams) from Charles River Laboratories (Wilmington, Mass.) were acclimated for 5 days prior to start of study. All studies were performed under approved IACUC protocols and conform to OLAW standards. Animals had free access to food and water throughout the study. Animals were provided enrichment and housed 5 per cage.
# Mice were injected SC with 0.2 mL of the bacterial-Cytodex inoculum. […] The mice were then euthanized and the abscesses aseptically removed, homogenized, serially diluted and plated for bacterial enumeration.
# [2] = in vivo; cited from earlier work
# Pneumocystis jirovecii [3] = assay: in vivo Pneumocystis pneumonia model, corticosteroid-treated rats; settings: once a day for 10 days; for Mean % + SD (inhibition of cysts, TBO) / Mean % + SD (inhibition of total parasites, Giemsa): group mean; for Total cysts (TBO) / Total parasites (Giemsa): rat lung; for Total cysts (TBO) / Total parasites (Giemsa) / % of inhibition vs Control (total parasites, Giemsa) / % of inhibition vs control (cysts, TBO): single rat
# Protocol: Compound solutions were prepared just before use.
# The drugs were given once a day for 10 consecutive days. The final concentration of DMSO in diluted drug solutions was between 1.5 and 15%. Control animals were dosed with sterile water with 15% of DMSO. At the end of the experiment, therapeutic efficacy was assessed by counting P. jirovecii in lung homogenates and comparing the counts with those of the untreated controls. Twenty-four hours after the end of the treatment, animals were sacrificed and the lung homogenized in a Stomacher-400 blender as previously described (European Concerted Action on Pneumocystis Research. Parasitology Today 12: 245-9, 1996, the entire disclosure of which is herein incorporated by reference). Parasite quantitation was performed on air-dried smears stained with toluidine blue 0 (cystic forms) or RAL-555 stains (vegetative, precystic and cystic forms).
# S. aureus 101 [4] = assay: MIC determination; assay type: cell-based, Staphylococcus aureus; settings: Staphylococcus aureus, 101, 18 h; read-out: Minimum inhibitory concentrations (MIC)
# Method in brief: (§1)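 K. pneumoniae and S. aureus grew in cation-adjusted Mueller-Hinton broth in ambient air. H. influenzae used Haemophilus test medium (MHB, yeast extract, NAD, hematin) and M. catarrhalis used Brain Heart Infusion, both under 5% CO2.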
# S. pneumoniae 1/1 [5] = assay: MIC determination; assay type: cell-based, Streptococcus pneumoniae; settings: Streptococcus pneumoniae; S. pneumoniae 1/1; 18 hours at 37° C., 5% CO2; read-out: Minimum inhibitory concentrations (MIC)
# [6] = test system: Streptococcus pneumoniae ATCC 49619; assay: MIC determination; assay type: cell-based; settings: Streptococcus pneumoniae, ATCC49619; S. pneumoniae 49619; 18 hours at 37° C., 5% CO2; read-out: Minimum inhibitory concentrations (MIC)
# [7] = test system: Moraxella catarrhalis RA 21; assay: MIC determination; assay type: cell-based; settings: Moraxella catarrhalis, RA21; M. catarrhalis RA 21; 18 hours at 37° C., 5% CO2; read-out: Minimum inhibitory concentrations (MIC)
# Method in brief: as §1
# [8] = test system: Staphylococcus aureus ATCC 25923; assay: MIC determination; assay type: cell-based; settings: Staphylococcus aureus, ATCC25923; S. aureus 25923; 18 hours at 37° C.; read-out: Minimum inhibitory concentrations (MIC)
# Method in brief: as §1
# [9] = test system: Klebsiella pneumoniae ATCC 33495; assay: MIC determination; assay type: cell-based; settings: Klebsiella pneumoniae, ATCC33495; K. pneumonia 33495; 18 hours at 37° C.; read-out: Minimum inhibitory concentrations (MIC)
# Method in brief: as §1
# [10] = test system: Haemophilus influenzae ATCC 49766; assay: MIC determination; assay type: cell-based; settings: Haemophilus influenzae, read-out: Minimum inhibitory concentrations (MIC)
# Method in brief: as §1
# Pneumocystis jirovecii [11] = assay: in vitro anti-Pneumocystis susceptibility, broth microdilution in axenic culture; settings: 4 days
# Protocol: Iclaprim was synthesized at Arpida Ltd. (Münchenstein, Switzerland). TMP and SMX were obtained from Sigma, Spain. […] TMP and SMX solutions were mixed appropriately to obtain a final 1:5-combination. For evaluating the in vitro anti-Pneumocystis activity, the drug stock solutions were diluted in Dulbecco's Modified Eagle's Medium (DMEM, Bio-Whittaker) supplemented with 10% heat-inactivated fetal calf serum (FCS, GIBCO-BRL) to produce the required drug concentrations. […] Compound solutions were prepared just before use.
# Corticosteroid-treated conventional laboratory rats were used as an animal model to obtain P. jirovecii organisms. Ten-week-old female Wistar rats (Harlan, France) were immunosuppressed for 3 weeks with dexamethasone (Fortecortin®, Merck) administered in the drinking water (2 mg/liter). Rats were then inoculated with 20×10^6 of cryopreserved parasites using a non-surgical endotracheal method. Dexamethasone treatment was maintained until the end of the experiment. Six to eight weeks' post-inoculation (p.i.) rats were highly infected, without secondary fungal or bacterial infection. Animals were allowed sterile standard food (UAR, France) and water ad libitum.
# Six to eight weeks following inoculation, rats were sacrificed and parasite extraction was performed. Briefly, parasites were extracted in Dulbecco's Modified Eagle's Medium (DMEM; Bio-Whittaker) by agitation of lung pieces with a magnetic stirrer. The resulting homogenate was poured successively through gauze, 250 and 63 micron stainless steels filters. After centrifugation, the pellet was resuspended in a hemolytic buffered solution. […] Blood and Sabouraud dextrose agar (Difco) media were inoculated with purified parasites to check for the presence of eventual contaminating pathogens.
# In vitro pharmacodynamic properties were determined using the Hill equation (Emax sigmoid model; see below).
# In vitro susceptibility studies were performed using the broth microdilution technique. […] All the experiments were carried out in 24-well plates with a final volume of 2 ml of DMEM supplemented with 10% FCS containing a final inoculum of 0.5×10^6 organisms per ml. Plates were then incubated for 4 days in an atmosphere of 5% C0^2 at 37° C. One free-drug control was included in each assay. Parasite quantitation was performed on homogenate smears as described above. All susceptibility assays were set up in triplicate.
# Analysis of results. […] Once all the differences between drug-treated and untreated wells were calculated, the concentration-effect relationship was established by using the Hill equation:
# The parameters of this pharmacodynamic model were calculated by nonlinear least-squares regression techniques using a commercial software (Sigma Plot).
# Gram-positive bacteria = settings: cited from earlier work
# [12] = in vivo; cited from earlier work; remark: listed apart in the source
# hERG channel = hERG channel (Homo sapiens, UniProt Q12809); settings: cited from earlier work
# [13] = test system: Streptococcus pneumoniae ATCC 49619; assay: checkerboard synergy assay with iclaprim; assay type: cell-based; settings: antibiotic in combination with iclaprim; S. pneumoniae 49619
# [14] = test system: Moraxella catarrhalis RA 21; assay: checkerboard synergy assay with iclaprim; assay type: cell-based; settings: antibiotic in combination with iclaprim; M. catarrhalis RA 21
# [15] = test system: Staphylococcus aureus ATCC 25923; assay: checkerboard synergy assay with iclaprim; assay type: cell-based; settings: antibiotic in combination with iclaprim; S. aureus 25923
# [16] = test system: Klebsiella pneumoniae ATCC 33495; assay: checkerboard synergy assay with iclaprim; assay type: cell-based; settings: antibiotic in combination with iclaprim; K. pneumoniae 33495
# [17] = test system: Haemophilus influenzae ATCC 49766; assay: checkerboard synergy assay with iclaprim; assay type: cell-based; settings: antibiotic in combination with iclaprim; H. influenzae 49766
# S. pneumoniae 1/1 [18] = assay: checkerboard synergy assay with iclaprim; assay type: cell-based, Streptococcus pneumoniae; settings: antibiotic in combination with iclaprim
# S. aureus 101 [19] = assay: checkerboard synergy assay with iclaprim; assay type: cell-based, Staphylococcus aureus; settings: antibiotic in combination with iclaprim
# [20] = cited from earlier work
# [21] = 1% solution in water; cited from earlier work
# [22] = water at 20° C.; cited from earlier work
# [23] = 5 mg/kg/d oral, listed as AR-100, 5 mg/kg/day
# [24] = 25 mg/kg/d oral, listed as AR-100, 25 mg/kg/day
# [25] = 50 mg/kg/d oral, listed as AR-100, 50 mg/kg/day
# [26] = 50 mg/kg/d oral, listed as TMP, 50 mg/kg/day
# Chain of hERG channel (Q12809 whole entry): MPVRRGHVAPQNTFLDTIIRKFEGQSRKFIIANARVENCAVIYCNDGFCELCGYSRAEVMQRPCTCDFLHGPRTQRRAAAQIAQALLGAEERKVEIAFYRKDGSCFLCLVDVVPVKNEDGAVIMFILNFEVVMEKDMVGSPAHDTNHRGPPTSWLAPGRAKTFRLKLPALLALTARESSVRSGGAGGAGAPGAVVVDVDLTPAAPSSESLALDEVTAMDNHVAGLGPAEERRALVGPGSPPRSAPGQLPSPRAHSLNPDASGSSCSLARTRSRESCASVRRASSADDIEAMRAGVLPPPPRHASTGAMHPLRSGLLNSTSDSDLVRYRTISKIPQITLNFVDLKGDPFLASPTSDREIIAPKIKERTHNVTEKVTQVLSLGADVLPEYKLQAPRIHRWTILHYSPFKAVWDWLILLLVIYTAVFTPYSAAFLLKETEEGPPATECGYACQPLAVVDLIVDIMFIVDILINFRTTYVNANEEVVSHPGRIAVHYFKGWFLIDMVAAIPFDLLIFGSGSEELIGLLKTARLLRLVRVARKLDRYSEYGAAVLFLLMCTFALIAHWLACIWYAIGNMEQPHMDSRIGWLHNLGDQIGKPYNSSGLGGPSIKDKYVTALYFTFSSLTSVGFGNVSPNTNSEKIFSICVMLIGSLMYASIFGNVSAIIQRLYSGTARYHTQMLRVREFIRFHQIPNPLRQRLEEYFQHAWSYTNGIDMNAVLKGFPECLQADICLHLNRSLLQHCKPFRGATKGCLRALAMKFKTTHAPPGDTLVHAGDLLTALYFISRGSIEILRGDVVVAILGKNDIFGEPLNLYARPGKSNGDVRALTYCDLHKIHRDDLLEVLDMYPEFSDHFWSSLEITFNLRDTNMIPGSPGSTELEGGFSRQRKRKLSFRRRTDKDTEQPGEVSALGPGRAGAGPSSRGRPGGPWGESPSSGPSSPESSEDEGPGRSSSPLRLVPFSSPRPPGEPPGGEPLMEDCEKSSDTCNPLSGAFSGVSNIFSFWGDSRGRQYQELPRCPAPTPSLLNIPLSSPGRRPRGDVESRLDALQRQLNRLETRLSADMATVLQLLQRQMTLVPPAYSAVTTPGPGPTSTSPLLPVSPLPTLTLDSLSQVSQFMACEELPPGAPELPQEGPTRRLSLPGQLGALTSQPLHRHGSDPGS
smiles,measurement,setting,value
"COc1cc(Cc2cnc(N)nc2N)c2c(c1OC)OC(C1CC1)C=C2 (racemic) [Iclaprim, 5-[(2RS)-2-cyclopropyl-7,8-dimethoxy-2Hchromen-5-ylmethyl] pyrimidine-2,4-diamine]",Change in average log10 CFU/gr of Abscess from Controls,[1],−0.79 log10 CFU/gr
same,t½ (plasma half-life),[2],about 2.9 hours
same,"Mean % + SD (inhibition of cysts, TBO)",Pneumocystis jirovecii [3]; 5 mg/kg/d oral,69.4 ± 8.4%
same,"Mean % + SD (inhibition of total parasites, Giemsa)",Pneumocystis jirovecii [3]; 5 mg/kg/d oral,66.9 ± 7.8%
same,"Mean % + SD (inhibition of cysts, TBO)",Pneumocystis jirovecii [3]; 25 mg/kg/d oral,72.0 ± 30.0%
same,"Mean % + SD (inhibition of total parasites, Giemsa)",Pneumocystis jirovecii [3]; 25 mg/kg/d oral,79.1 ± 20.9%
same,"Mean % + SD (inhibition of cysts, TBO)",Pneumocystis jirovecii [3]; 50 mg/kg/d oral,71.7 ± 14.5%
same,"Mean % + SD (inhibition of total parasites, Giemsa)",Pneumocystis jirovecii [3]; 50 mg/kg/d oral,76.5 ± 13.3%
same,Total cysts (TBO),Pneumocystis jirovecii [3]; [23],3.85.10^+7 and 2.60.10^+7 and 4.61.10^+7
same,Total parasites (Giemsa),Pneumocystis jirovecii [3]; [23],9.13.10^+8 and 6.56.10^+8
same,Total cysts (TBO),Pneumocystis jirovecii [3]; [24],1.72.10^+7 and 8.94.10^+6 and 9.11.10^+7
same,Total parasites (Giemsa),Pneumocystis jirovecii [3]; [24],3.94.10^+8 and 3.41.10^+7 and 9.38.10^+8
same,Total cysts (TBO),Pneumocystis jirovecii [3]; [25],5.17.10^+7 and 3.38.10^+7 and 5.23.10^+7
same,Total parasites (Giemsa),Pneumocystis jirovecii [3]; [25],5.68.10^+8 and 7.71.10^+8 and 2.00.10^+8
same,"% of inhibition vs Control (total parasites, Giemsa)",Pneumocystis jirovecii [3]; [23],58.1% and 69.9% and 72.8%
same,"% of inhibition vs control (cysts, TBO)",Pneumocystis jirovecii [3]; [23],68.0% and 78.4% and 61.7%
same,"% of inhibition vs Control (total parasites, Giemsa)",Pneumocystis jirovecii [3]; [24],81.9% and 98.4% and 90.8%
same,"% of inhibition vs control (cysts, TBO)",Pneumocystis jirovecii [3]; [24],85.7% and 92.6% and 37.7%
same,"% of inhibition vs Control (total parasites, Giemsa)",Pneumocystis jirovecii [3]; [25],74.0% and 64.7% and 90.8%
same,"% of inhibition vs control (cysts, TBO)",Pneumocystis jirovecii [3]; [25],57.1% and 71.9% and 86.1%
same,MIC,S. aureus 101 [4],1 µg/mL
same,MIC,S. pneumoniae 1/1 [5],1 µg/mL
same,MIC,[6],0.125 µg/mL
same,MIC,[7],2 µg/mL
same,MIC,[8],0.063 µg/mL
same,MIC,[9],8 µg/mL
same,MIC,"[10]; ATCC49766, H. Influenza 49766, 18 hours at 37° C., 5% CO2",0.25 µg/mL
same,% inhibition vs control,Pneumocystis jirovecii [11]; Iclaprim 5 μg/ml,5.8 ± 2.6%
same,Log (total parasites),Pneumocystis jirovecii [11]; Iclaprim 5 μg/ml,6.2
same,Total parasites (× 10^6),Pneumocystis jirovecii [11]; Iclaprim 5 μg/ml,1.5 ± 0.04 × 10^6
same,% inhibition vs control,Pneumocystis jirovecii [11]; Iclaprim 11 μg/ml,19.3 ± 7.4%
same,Log (total parasites),Pneumocystis jirovecii [11]; Iclaprim 11 μg/ml,6.1
same,Total parasites (× 10^6),Pneumocystis jirovecii [11]; Iclaprim 11 μg/ml,1.3 ± 0.1 × 10^6
same,% inhibition vs control,Pneumocystis jirovecii [11]; Iclaprim 18 μg/ml,44.0 ± 6.3%
same,Log (total parasites),Pneumocystis jirovecii [11]; Iclaprim 18 μg/ml,5.9
same,Total parasites (× 10^6),Pneumocystis jirovecii [11]; Iclaprim 18 μg/ml,0.9 ± 0.1 × 10^6
same,% inhibition vs control,Pneumocystis jirovecii [11]; Iclaprim 24 μg/ml,58.1 ± 3.1%
same,Log (total parasites),Pneumocystis jirovecii [11]; Iclaprim 24 μg/ml,5.8
same,Total parasites (× 10^6),Pneumocystis jirovecii [11]; Iclaprim 24 μg/ml,0.7 ± 0.05 × 10^6
same,% inhibition vs control,Pneumocystis jirovecii [11]; Iclaprim 31 μg/ml,79.3 ± 4.8%
same,Log (total parasites),Pneumocystis jirovecii [11]; Iclaprim 31 μg/ml,5.5
same,Total parasites (× 10^6),Pneumocystis jirovecii [11]; Iclaprim 31 μg/ml,0.3 ± 0.08 × 10^6
same,% inhibition vs control,Pneumocystis jirovecii [11]; Iclaprim 37 μg/ml,92.3 ± 1.9%
same,Log (total parasites),Pneumocystis jirovecii [11]; Iclaprim 37 μg/ml,5.1
same,Total parasites (× 10^6),Pneumocystis jirovecii [11]; Iclaprim 37 μg/ml,0.1 ± 0.03 × 10^6
same,% inhibition vs control,Pneumocystis jirovecii [11]; Iclaprim 44 μg/ml,98.3 ± 0.72%
same,Log (total parasites),Pneumocystis jirovecii [11]; Iclaprim 44 μg/ml,4.4
same,Total parasites (× 10^6),Pneumocystis jirovecii [11]; Iclaprim 44 μg/ml,0.03 ± 0.01 × 10^6
same,% inhibition vs control,Pneumocystis jirovecii [11]; Iclaprim 50 μg/ml,99.7 ± 0.04%
same,Log (total parasites),Pneumocystis jirovecii [11]; Iclaprim 50 μg/ml,3.7
same,Total parasites (× 10^6),Pneumocystis jirovecii [11]; Iclaprim 50 μg/ml,0.01 ± 0.001 × 10^6
same,% inhibition vs control,Pneumocystis jirovecii [11]; Iclaprim 80 μg/ml,99.8 ± 0.12%
same,Log (total parasites),Pneumocystis jirovecii [11]; Iclaprim 80 μg/ml,3.4
same,Total parasites (× 10^6),Pneumocystis jirovecii [11]; Iclaprim 80 μg/ml,0.003 ± 0.002 × 10^6
same,% inhibition vs control,Pneumocystis jirovecii [11]; Iclaprim 100 μg/ml,99.9 ± 0.07%
same,Log (total parasites),Pneumocystis jirovecii [11]; Iclaprim 100 μg/ml,3.3
same,Total parasites (× 10^6),Pneumocystis jirovecii [11]; Iclaprim 100 μg/ml,0.002 ± 0.001 × 10^6
"COc1cc(Cc2cnc(N)nc2N)c2c(c1OC)O[C@H](C1CC1)C=C2 [R-enantiomer, 5-[(2R)-2-cyclopropyl-7,8-dimethoxy-2Hchromen-5-ylmethyl] pyrimidine-2,4-diamine]",minimum inhibitory concentration (MIC) compared with the S-enantiomer,Gram-positive bacteria,lower minimum inhibitory concentration (MIC) than the S-enantiomer
same,pharmacokinetic parameters compared with the S-enantiomer,[12],more favorable pharmacokinetic parameters
same,hERG channel activity compared with the S-enantiomer,hERG channel,reduced hERG channel activity
COc1cc(Cc2cnc(N)nc2N)cc(OC)c1OC [Trimethoprim],Σ FIC,[13],1.00-1.25
same,Con (Conclusion),[14],Ad (Additivity (Ad))
same,Σ FIC,[14],0.75-1.13
same,Σ FIC,[15],1.00-1.25
same,Con (Conclusion),[16],Ind (Indifference (Ind))
same,Σ FIC,[16],1.13-1.50
same,Con (Conclusion),[17],Ind (Indifference (Ind))
same,Σ FIC,[17],1.00-1.25
same,t½ (plasma half-life),[2],about 10.1 hours
same,"Mean % + SD (inhibition of cysts, TBO)",Pneumocystis jirovecii [3]; 50 mg/kg/d oral,64.2 ± 30.7%
same,"Mean % + SD (inhibition of total parasites, Giemsa)",Pneumocystis jirovecii [3]; 50 mg/kg/d oral,78.7 ± 22.6%
same,Total cysts (TBO),Pneumocystis jirovecii [3]; [26],7.16.10^+7 and 9.36.10^+6 and 1.60.10^+8 and 1.32.10^+7
same,Total parasites (Giemsa),Pneumocystis jirovecii [3]; [26],1.06.10^+9 and 5.81.10^+7 and 6.76.10^+8 and 6.38.10^+7
same,"% of inhibition vs Control (total parasites, Giemsa)",Pneumocystis jirovecii [3]; [26],51.3% and 97.3% and 69.0% and 97.1%
same,"% of inhibition vs control (cysts, TBO)",Pneumocystis jirovecii [3]; [26],40.6% and 92.2% and 34.9% and 89.0%
same,Σ FIC,S. pneumoniae 1/1 [18],0.56-1.03
same,MIC,S. aureus 101 [4],> 128 µg/mL
same,MIC,S. pneumoniae 1/1 [5],128 µg/mL
same,Σ FIC,S. aureus 101 [19],1.01-1.50
same,MIC,[6],8 µg/mL
same,MIC,[7],64 µg/mL
same,MIC,[8],1 µg/mL
same,MIC,[9],8 µg/mL
same,MIC,"[10]; ATCC49766, 18 h",0.5 µg/mL
COc1cc(Cc2cnc(N)nc2N)c2c(c1OC)OC(C1CC1)C=C2 (stereo not drawn) [iclaprim mesylate],pKa,[20],7.2
same,pH value,[21],4.2
same,solubility in water,[22],approximately 10 mg/mL
